Laboratory results from publication PMC12675575, “A BRET biosensor for measuring uncompetitive engagement of PRMT5 complexes in cells” (Nature Communications, 2025).
Like-named read-outs stand apart in the source and are kept apart here.

Biological target: NanoLuc-PRMT5 co-expressed with WDR77 (Homo sapiens, UniProt O14744)
Experiment: Live-cell NanoBRET target engagement with BRET probe CBH-002 in HEK293 cells expressing NanoLuc-PRMT5 and unlabeled WDR77
Type: cell-based
Design: host or cells: HEK293
Conditions: HEK293, Figure S2H, log([compound]), read-out: normalised BRET, Bio rep 1-3; for remaining activity at 0.3715 µM: uM -0.43; for remaining activity at 0.04074 µM: uM -1.39; for remaining activity at 0.0138 µM: uM -1.86; for remaining activity at 0.004571 µM: uM -2.34; for remaining activity at 0.001514 µM: uM -2.82; for remaining activity at 0.0005129 µM: uM -3.29; for remaining activity at 0.0001698 µM: uM -3.77
Experimental: HEK293 cells (ATCC) were cultured in DMEM (Thermo Fisher) + 10% (v/v) FBS (Seredigm), and HCT116 cells (Horizon Discovery, #PAR-034 and #R02-033) were cultured in McCoy’s 5A (Thermo Fisher) + 10% FBS, with incubation in a humidified, 37 °C/5% CO2 incubator. Cells were split 1–3 days prior to performing experiments and used at roughly 80% confluency. […] Cells were transfected according to the manufacturer’s protocol using FuGENE HD (Promega). NanoLuc fusion DNA was diluted into Transfection Carrier DNA (Promega) in Opti-MEM at a ratio of 1:9 (mass/mass), and FuGENE HD was added at a ratio of 1:3 (μg DNA:μL lipid). […] Formed complexes were combined with cells resuspended to a density of 2 × 10^5 cells/mL in Opti-MEM + 1% FBS at a ratio of 1:20 (vol:vol). […] Cells were seeded at a density of 2 × 10^5 cells/mL in Opti-MEM + 1% FBS in 100 μL (96-well). The BRET probe CBH-002 was prepared first as a 100× stock in 100% DMSO (Sigma) and then diluted to a 20× stock in NanoBRET Tracer Dilution buffer (Promega). Test compounds were prepared as 1000× stocks in 100% DMSO and diluted to 10× stocks in Opti-MEM to prepare working stocks. […] NanoBRET Complete 3x Substrate was prepared by combining Nano-Glo Substrate and Extracellular NanoLuc Inhibitor in Opti-MEM, according to the manufacturer’s protocol (Promega).
BRET ratio values were calculated by dividing the acceptor by the donor signal, and raw BRET was converted to milli-BRET (mBRET) units (mBu) by multiplying by 1000.
EC50 values were obtained by fitting the BRET probe and compound affinity curves to a sigmoidal four-parameter fit model in Graphpad Prism:1 Y=Ymin+Ymax−Ymin/1+10^LogEC50−Xh where h is the Hill Slope.
When normalized BRET was used, mBRET values were normalized using2 NormalizedBRET%=(Y−BRETmin)/BRETmax−BRETmin where y = mBRET in the presence of test compound and BRET probe, BRETmin = mBRET at the highest concentration (saturating) of test compound and BRET probe, and BRETmax = mBRET in the presence of vehicle (DMSO) and BRET probe.
Normalized concentration-response curves showing full competition were fit using a 2-parameter model:3 Y=100/1+10^LogEC50−Xh
In situations where only partial competition was observed, the normalized concentration-response curves were fit using Eq. 1 and where Ymin was constrained to >0.

Chain of NanoLuc-PRMT5 co-expressed with WDR77 (O14744 whole entry): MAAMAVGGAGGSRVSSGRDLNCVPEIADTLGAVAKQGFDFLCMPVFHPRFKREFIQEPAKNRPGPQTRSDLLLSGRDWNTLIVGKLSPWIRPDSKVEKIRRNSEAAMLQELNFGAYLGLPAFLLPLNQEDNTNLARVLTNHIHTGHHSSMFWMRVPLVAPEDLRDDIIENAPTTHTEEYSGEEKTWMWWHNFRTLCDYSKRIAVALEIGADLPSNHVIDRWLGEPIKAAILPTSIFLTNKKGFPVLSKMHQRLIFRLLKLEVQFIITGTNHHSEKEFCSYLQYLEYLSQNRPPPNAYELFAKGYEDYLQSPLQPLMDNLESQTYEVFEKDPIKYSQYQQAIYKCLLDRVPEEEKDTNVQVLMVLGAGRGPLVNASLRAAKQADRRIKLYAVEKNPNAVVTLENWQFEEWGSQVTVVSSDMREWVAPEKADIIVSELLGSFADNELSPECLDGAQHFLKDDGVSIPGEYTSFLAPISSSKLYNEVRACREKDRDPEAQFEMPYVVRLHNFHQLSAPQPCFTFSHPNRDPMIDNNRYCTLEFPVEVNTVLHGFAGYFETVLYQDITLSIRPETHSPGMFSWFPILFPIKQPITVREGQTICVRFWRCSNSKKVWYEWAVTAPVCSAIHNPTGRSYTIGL
Chain of NanoLuc-PRMT5 co-expressed with WDR77 (Q9BQA1 whole entry partner): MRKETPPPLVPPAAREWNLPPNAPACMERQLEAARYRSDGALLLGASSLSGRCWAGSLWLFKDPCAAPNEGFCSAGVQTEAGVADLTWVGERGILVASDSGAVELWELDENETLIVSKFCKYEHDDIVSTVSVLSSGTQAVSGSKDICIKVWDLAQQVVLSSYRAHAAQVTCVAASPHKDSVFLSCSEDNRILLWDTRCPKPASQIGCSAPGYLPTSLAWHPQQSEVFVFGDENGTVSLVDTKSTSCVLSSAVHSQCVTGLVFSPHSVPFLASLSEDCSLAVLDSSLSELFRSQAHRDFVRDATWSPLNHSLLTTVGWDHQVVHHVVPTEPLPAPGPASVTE

remaining activity at […] (uM 0.0458) [%] | remaining activity at […] (uM 0.52) [%] | remaining activity at 0.3715 µM [%] | remaining activity at […] (uM -0.91) [%] | remaining activity at 0.04074 µM [%] | remaining activity at 0.0138 µM [%] | remaining activity at 0.004571 µM [%] | remaining activity at 0.001514 µM [%] | remaining activity at 0.0005129 µM [%] | remaining activity at 0.0001698 µM [%] | SMILES
100 | 99 | 102 | 102 | 101 | 101 | 99.8 | 97.9 | 97.6 | 97.4 | CNCCN1CCC(c2cc(CN(C)C(=O)c3cccc(Oc4ccccc4)c3)ccn2)CC1 [TP064, reference compound]
103 | 102 | 102 | 103 | 103 | 104 | 101 | 102 | 103 | 98 | CC(C)Oc1ccc(-c2c[nH]cc2CN(C)CCN)cc1 [MS023, reference compound]
